Measurements taken from paper PMC11284340 (FASEB journal : official publication of the Federation of …, 2024).
One block for each molecule: values may come before it.

What was measured:
[1] = target: T1, Drosophila insulin receptor kinase domain (D-IRK) (Drosophila melanogaster, UniProt P09208); test: [γ-32P]-ATP phosphocellulose kinase assay at […]; assay type: biochemical; conditions: read-out: % inhibition at 10 μM
T1 sequence (P09208 1358-1672): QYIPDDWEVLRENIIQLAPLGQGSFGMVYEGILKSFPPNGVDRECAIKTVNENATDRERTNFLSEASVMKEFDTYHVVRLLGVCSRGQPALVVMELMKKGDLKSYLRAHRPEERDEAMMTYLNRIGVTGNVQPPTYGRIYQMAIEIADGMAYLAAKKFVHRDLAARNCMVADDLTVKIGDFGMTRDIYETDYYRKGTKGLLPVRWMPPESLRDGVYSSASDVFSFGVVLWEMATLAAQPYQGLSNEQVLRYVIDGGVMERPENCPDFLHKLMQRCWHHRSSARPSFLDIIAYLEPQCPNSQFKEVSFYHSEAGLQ

[2] = target: T1, Drosophila insulin receptor kinase domain (D-IRK); test: [γ-32P]-ATP phosphocellulose kinase assay; assay type: biochemical; conditions: read-out: % inhibition at 10 μM
[3] = substrate: Nc1ncnc2c1ncn2[C@@H]1O[C@H](COP(=O)(O)OP(=O)(O)OP(=O)(O)O)[C@@H](O)[C@H]1O; test: continuous spectrophotometric coupled assay, Km; assay type: biochemical, Drosophila melanogaster; conditions: Mg2+ ATP-binding site

inhibition at 10 µM [1]: ~70%
Molecule: COc1cc2c(Nc3ccc(Br)cc3F)ncnc2cc1OCC1CCN(C)CC1 [Vandetanib]

Molecule: CN[C@@H]1C[C@H]2O[C@@](C)([C@@H]1OC)n1c3ccccc3c3c4c(c5c6ccccc6n2c5c31)C(=O)NC4 [Staurosporine]
inhibition at 10 µM [2]: 98%

B1: Drosophila insulin receptor kinase domain (D-IRK) (Drosophila melanogaster) (protein)
chain: QYIPDDWEVLRENIIQLAPLGQGSFGMVYEGILKSFPPNGVDRECAIKTVNENATDRERTNFLSEASVMKEFDTYHVVRLLGVCSRGQPALVVMELMKKGDLKSYLRAHRPEERDEAMMTYLNRIGVTGNVQPPTYGRIYQMAIEIADGMAYLAAKKFVHRDLAARNCMVADDLTVKIGDFGMTRDIYETDYYRKGTKGLLPVRWMPPESLRDGVYSSASDVFSFGVVLWEMATLAAQPYQGLSNEQVLRYVIDGGVMERPENCPDFLHKLMQRCWHHRSSARPSFLDIIAYLEPQCPNSQFKEVSFYHSEAGLQ
Km [3]: 1350 ± 170 µM
